# According to PubChem BioAssay (NCI):
#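 Interpolation was linear, between the two tested concentrations surrounding the appropriate level; five concentrations were tested over 48 hours in 96-well plates. TGI is the concentration that stops growth completely.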
# Legend:
# Experiment in all cases: inhibition of tumour cell growth, NCI panel, 48 h
# [1] = test system: NCI-H226 lung
# [2] = test system: UO-31 renal
# [3] = test system: ACHN renal
# [4] = test system: NCI-H460 lung
# [5] = test system: M14 melanoma
# [6] = test system: SK-MEL-2 melanoma
# [7] = test system: HT29 colon
# [8] = test system: MALME-3M melanoma
# [9] = test system: EKVX NSCLC
# [10] = test system: OVCAR-8 ovarian
# [11] = test system: UACC-62 melanoma
# [12] = test system: HL-60(TB) leukemia
SMILES,TGI [1] [µM],TGI [2] [µM],TGI [3] [µM],TGI [4] [µM],TGI [5] [µM],TGI [6] [µM],TGI [7] [µM],TGI [8] [µM],TGI [9] [µM],TGI [10] [µM],TGI [11] [µM],TGI [12] [µM]
CC(C)=CCc1c(O)c(CC=C(C)C)c2oc3c(c(=O)c2c1O)C(C=C(C)C)Oc1cc(O)ccc1-3 (stereo not drawn),49.8,15.7,15.4,17,21,7.93,23.1,37,14.5,24.4,18,29.8
CN(Cc1cnc2nc(N)nc(N)c2n1)c1ccc(C(=O)NC2CCCCC2)cc1,80.4,> 100,47.8,63.5,29,> 100,31,> 100,> 100,> 100,32,> 100
COC1(CCO)CC=CCC1(CCO)OC (stereo not drawn),> 100,> 100,> 100,> 100,> 100,> 100,> 100,> 100,> 100,> 100,> 100,> 100
CCOP(=O)(OCC)OC1CC(n2cnc3c(N(CC)CC)ncnc32)OC1CO[Si](C)(C)C(C)(C)C (stereo not drawn),39.3,35.4,28.8,32,33.1,45.6,35,41.4,20.5,56.4,28.2,> 100
